One experiment concerns the target Acetylcholinesterase (Homo sapiens, UniProt P22303). Format: functional.
The target in a further experiment is D(1A) dopamine receptor (Homo sapiens, UniProt P21728).
Another experiment deals with T1, Progesterone receptor (Homo sapiens, UniProt P06401).
T1 sequence (P06401 whole entry): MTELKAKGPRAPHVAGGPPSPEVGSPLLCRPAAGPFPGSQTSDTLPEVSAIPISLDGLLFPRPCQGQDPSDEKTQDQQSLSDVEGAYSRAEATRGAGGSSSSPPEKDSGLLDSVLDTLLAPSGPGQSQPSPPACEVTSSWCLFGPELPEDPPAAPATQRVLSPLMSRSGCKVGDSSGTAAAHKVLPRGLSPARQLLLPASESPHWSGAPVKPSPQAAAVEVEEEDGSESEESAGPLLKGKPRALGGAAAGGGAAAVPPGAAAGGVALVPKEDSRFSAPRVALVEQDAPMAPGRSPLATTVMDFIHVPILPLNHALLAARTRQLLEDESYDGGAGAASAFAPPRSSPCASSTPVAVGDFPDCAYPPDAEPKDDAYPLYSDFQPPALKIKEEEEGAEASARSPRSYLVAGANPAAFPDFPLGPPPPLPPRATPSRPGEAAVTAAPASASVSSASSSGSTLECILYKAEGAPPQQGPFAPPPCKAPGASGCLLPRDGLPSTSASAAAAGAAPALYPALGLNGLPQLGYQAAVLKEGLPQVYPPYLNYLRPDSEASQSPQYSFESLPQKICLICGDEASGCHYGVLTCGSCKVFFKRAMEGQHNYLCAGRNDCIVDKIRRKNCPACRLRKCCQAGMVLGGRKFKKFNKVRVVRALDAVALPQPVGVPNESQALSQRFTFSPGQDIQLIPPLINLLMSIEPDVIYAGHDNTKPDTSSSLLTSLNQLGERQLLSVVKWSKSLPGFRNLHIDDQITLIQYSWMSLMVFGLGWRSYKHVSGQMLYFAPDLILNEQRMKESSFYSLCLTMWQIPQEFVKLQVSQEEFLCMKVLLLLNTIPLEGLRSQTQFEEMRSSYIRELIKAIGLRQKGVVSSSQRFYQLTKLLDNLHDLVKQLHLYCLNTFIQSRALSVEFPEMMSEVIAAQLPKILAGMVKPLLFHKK

The target in experiment [1] is Sodium-dependent dopamine transporter (Homo sapiens, UniProt Q01959).
Sodium-dependent dopamine transporter, sequence (Q01959 whole entry): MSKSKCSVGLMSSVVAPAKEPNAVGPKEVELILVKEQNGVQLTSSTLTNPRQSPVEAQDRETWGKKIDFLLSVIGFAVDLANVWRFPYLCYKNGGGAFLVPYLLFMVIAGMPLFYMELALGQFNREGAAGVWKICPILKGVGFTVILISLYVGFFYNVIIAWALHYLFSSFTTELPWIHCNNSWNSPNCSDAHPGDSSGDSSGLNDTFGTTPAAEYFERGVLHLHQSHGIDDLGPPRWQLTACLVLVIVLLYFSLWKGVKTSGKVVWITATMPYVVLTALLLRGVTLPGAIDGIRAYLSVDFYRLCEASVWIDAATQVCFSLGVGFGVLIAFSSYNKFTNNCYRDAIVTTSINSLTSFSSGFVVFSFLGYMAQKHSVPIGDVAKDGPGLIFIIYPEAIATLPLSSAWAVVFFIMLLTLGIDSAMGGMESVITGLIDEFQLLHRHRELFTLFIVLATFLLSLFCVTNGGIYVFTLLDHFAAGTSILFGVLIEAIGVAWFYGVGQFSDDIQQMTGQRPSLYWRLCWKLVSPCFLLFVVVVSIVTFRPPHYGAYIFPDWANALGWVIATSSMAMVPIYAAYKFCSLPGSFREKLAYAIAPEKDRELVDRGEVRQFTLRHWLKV
Experiment [2] addresses Voltage-dependent L-type calcium channel subunit alpha-1C (Rattus norvegicus, UniProt P22002). Type of experiment: functional.
In experiment [3] the target is T2, 5-hydroxytryptamine receptor 1A (Homo sapiens, UniProt P08908).
T2 sequence (P08908 whole entry): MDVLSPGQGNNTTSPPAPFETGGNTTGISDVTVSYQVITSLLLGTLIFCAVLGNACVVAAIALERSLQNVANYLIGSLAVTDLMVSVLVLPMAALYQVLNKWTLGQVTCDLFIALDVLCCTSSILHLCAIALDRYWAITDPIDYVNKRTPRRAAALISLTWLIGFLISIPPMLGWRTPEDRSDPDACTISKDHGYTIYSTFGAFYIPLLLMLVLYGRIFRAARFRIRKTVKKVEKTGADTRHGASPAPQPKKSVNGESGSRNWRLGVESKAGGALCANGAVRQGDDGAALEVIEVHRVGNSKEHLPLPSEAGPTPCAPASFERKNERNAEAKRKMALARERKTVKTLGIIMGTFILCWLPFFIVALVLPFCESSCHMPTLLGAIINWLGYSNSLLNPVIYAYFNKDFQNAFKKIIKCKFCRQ
Type of experiment: functional, cell-based.
Note: assay procedure not described here.

D(1A) dopamine receptor, sequence (P21728 whole entry): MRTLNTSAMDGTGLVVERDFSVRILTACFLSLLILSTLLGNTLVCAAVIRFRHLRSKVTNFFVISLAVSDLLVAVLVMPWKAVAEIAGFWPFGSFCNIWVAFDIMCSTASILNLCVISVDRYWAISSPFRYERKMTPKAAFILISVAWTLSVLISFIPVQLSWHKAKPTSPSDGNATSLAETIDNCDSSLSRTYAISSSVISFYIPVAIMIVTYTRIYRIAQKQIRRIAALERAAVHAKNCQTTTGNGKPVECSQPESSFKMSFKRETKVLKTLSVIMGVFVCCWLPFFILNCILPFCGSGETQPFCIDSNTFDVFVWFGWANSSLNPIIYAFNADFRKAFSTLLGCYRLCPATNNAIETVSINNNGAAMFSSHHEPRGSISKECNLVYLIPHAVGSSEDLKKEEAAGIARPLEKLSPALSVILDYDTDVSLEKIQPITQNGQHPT
Acetylcholinesterase, sequence (P22303 whole entry): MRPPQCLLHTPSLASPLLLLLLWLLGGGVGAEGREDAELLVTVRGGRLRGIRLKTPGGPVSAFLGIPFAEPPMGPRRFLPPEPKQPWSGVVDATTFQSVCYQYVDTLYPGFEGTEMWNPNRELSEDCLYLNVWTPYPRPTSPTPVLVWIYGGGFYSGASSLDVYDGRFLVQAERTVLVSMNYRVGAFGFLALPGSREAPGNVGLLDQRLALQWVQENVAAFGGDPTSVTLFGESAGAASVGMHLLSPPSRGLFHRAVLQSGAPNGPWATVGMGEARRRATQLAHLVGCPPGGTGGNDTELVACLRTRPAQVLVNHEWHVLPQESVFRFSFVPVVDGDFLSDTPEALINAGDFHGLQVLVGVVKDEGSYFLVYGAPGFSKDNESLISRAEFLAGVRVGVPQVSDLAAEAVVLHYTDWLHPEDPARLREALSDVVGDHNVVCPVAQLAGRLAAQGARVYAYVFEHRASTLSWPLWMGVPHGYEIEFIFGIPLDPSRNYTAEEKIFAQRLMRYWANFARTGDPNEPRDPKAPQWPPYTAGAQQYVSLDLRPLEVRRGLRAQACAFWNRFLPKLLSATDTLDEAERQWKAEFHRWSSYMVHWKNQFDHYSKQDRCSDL
Voltage-dependent L-type calcium channel subunit alpha-1C, sequence (P22002 whole entry): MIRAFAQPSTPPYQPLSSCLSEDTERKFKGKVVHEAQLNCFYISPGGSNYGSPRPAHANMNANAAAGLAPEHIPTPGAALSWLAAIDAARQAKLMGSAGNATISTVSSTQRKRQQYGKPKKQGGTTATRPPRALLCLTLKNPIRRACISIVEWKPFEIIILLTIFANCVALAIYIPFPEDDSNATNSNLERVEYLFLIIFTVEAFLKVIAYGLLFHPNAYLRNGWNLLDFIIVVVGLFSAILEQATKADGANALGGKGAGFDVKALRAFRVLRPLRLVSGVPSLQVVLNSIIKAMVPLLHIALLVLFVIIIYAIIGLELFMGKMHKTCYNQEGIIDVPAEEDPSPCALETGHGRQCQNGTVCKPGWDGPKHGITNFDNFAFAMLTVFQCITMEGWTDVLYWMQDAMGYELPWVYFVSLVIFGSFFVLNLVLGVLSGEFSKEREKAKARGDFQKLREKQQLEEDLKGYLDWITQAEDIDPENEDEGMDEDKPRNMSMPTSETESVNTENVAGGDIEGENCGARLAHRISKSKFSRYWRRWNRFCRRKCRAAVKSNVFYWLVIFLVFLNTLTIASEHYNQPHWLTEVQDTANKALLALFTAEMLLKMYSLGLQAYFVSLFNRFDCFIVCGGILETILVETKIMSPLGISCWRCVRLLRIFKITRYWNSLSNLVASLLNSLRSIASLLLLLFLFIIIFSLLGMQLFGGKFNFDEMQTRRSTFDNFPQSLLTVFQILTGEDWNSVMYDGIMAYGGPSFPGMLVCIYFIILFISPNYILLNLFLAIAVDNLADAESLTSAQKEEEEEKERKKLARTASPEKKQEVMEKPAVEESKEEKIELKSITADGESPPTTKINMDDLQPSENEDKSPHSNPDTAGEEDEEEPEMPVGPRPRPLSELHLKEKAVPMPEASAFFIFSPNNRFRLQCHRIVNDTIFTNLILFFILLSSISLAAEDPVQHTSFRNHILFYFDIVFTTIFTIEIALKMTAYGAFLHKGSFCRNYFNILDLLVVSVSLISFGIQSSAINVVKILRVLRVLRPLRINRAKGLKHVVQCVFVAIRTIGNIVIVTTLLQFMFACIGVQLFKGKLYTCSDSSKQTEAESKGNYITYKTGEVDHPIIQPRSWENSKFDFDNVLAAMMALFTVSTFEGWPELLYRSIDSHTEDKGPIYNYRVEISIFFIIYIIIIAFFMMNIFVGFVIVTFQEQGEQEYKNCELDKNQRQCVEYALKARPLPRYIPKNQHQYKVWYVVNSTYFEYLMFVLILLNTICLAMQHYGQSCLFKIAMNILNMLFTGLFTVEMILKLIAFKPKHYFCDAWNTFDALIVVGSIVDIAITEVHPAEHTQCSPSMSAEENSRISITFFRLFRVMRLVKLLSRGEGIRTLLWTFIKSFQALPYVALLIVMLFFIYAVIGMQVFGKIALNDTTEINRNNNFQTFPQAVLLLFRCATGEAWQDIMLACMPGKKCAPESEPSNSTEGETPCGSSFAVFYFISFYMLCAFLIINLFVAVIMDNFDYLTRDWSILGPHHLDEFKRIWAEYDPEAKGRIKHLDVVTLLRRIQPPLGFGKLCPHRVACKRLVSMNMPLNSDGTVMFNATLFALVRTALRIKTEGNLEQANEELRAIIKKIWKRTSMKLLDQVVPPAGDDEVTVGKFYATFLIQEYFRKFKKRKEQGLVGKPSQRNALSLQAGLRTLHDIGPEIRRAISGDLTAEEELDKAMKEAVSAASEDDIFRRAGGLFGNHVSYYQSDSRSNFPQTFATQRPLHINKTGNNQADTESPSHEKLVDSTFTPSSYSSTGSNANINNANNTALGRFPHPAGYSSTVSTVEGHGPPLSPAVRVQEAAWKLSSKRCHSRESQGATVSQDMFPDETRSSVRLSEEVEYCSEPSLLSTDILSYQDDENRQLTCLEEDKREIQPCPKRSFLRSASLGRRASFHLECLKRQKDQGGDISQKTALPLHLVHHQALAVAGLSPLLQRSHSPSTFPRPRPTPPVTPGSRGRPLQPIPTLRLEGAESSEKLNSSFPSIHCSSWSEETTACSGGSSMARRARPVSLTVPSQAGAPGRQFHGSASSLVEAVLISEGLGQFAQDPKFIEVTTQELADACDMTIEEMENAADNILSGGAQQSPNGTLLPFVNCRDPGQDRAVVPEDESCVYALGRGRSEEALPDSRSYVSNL

Regarding `OC[C@H]1NC[C@H](O)[C@@H](O)[C@H]1O`, the half-maximal activity concentration (AC50) (at Acetylcholinesterase; at D(1A) dopamine receptor; at Progesterone receptor; in experiment [1]) was over 30 µM throughout.

Take `O=C(O)[C@@H](S)[C@@H](S)C(=O)O`: the AC50 (at Acetylcholinesterase; at D(1A) dopamine receptor; on Progesterone receptor; in experiment [1]) was over 30 µM each time.

As for `C=CC1=C(C(=O)O)N2C(=O)[C@@H](NC(=O)/C(=N\O)c3csc(N)n3)[C@H]2SC1`, the concentration at half-maximal activity (AC50) in experiment [2] and in experiment [3] was over 10 µM throughout.

On to `CC#CC(=O)N1CCC[C@H]1c1nc(-c2ccc(C(=O)Nc3ccccn3)cc2)c2c(N)nccn12` [ACALABRUTINIB], for which the AC50 (at Acetylcholinesterase; at D(1A) dopamine receptor; on Progesterone receptor; in experiment [1]) was over 30 µM throughout.

Turning to `O=C(O)COC(=O)Cc1ccccc1Nc1c(Cl)cccc1Cl` [ACECLOFENAC], the AC50 in experiment [2] and in experiment [3] was over 10 µM each time.

On to `C=CCOc1ccc(CC(=O)O)cc1Cl` [ALCLOFENAC], for which the AC50 (at Acetylcholinesterase; at D(1A) dopamine receptor; at Progesterone receptor; in experiment [1]) was over 30 µM each time.

Take `NC(=O)C1(N2CCCCC2)CCN(CCCN2c3ccccc3CCc3ccccc32)CC1` [CARPIPRAMINE]: the AC50 is over 30 µM at Acetylcholinesterase, 0.0928 µM on D(1A) dopamine receptor, over 30 µM at Progesterone receptor and 2.94 µM in experiment [1].

For the compound `O=C(Cc1cccs1)N[C@@H]1C(=O)N2C(C(=O)[O-])=C(C[n+]3ccccc3)CS[C@H]12` [CEPHALORIDINE], the AC50 (at Acetylcholinesterase; in experiment [3]; at D(1A) dopamine receptor; at Progesterone receptor; in experiment [1]) was over 30 µM each time.

`CN1CCN(C(c2ccccc2)c2ccc(Cl)cc2)CC1` (stereo not drawn) [CHLORCYCLIZINE]: the AC50 at Acetylcholinesterase is over 30 µM; at D(1A) dopamine receptor, 6.89 µM; on Progesterone receptor, over 30 µM; in experiment [1] it was 0.225 µM.

In the case of `CCCCCCCCCCCCCCCC(=O)OC[C@H](COP(=O)([O-])OCC[N+](C)(C)C)OC(=O)CCCCCCCCCCCCCCC` [COLFOSCERIL PALMITATE], the AC50 (at Acetylcholinesterase; at D(1A) dopamine receptor; at Progesterone receptor; in experiment [1]) was over 30 µM throughout.

In the case of `O=P1(N(CCCl)CCCl)NCCCO1` (stereo not drawn) [CYCLOPHOSPHAMIDE ANHYDROUS], the AC50 (at Acetylcholinesterase; on D(1A) dopamine receptor; on Progesterone receptor; in experiment [1]) was over 30 µM in each case.

Turning to `CC(C)Nc1cccnc1N1CCN(C(=O)c2cc3cc(NS(C)(=O)=O)ccc3[nH]2)CC1` [DELAVIRDINE], the AC50 (at Acetylcholinesterase; at D(1A) dopamine receptor; on Progesterone receptor; in experiment [1]) was over 30 µM throughout.

Consider `C[C@@H](CN1CC(=O)NC(=O)C1)N1CC(=O)NC(=O)C1` [DEXRAZOXANE], for which the AC50 (on Acetylcholinesterase; on D(1A) dopamine receptor; on Progesterone receptor; in experiment [1]) was over 30 µM each time.

With `C[C@]12CC[C@@H]3c4ccc(OC(=O)N(CCCl)CCCl)cc4CC[C@H]3[C@@H]1CC[C@@H]2OP(=O)(O)O` [ESTRAMUSTINE PHOSPHATE], the AC50 at Acetylcholinesterase was over 30 µM; at D(1A) dopamine receptor it was 25.4 µM; at Progesterone receptor, over 30 µM; in experiment [1], over 30 µM.

In the case of `O=c1[nH]c2ccccc2n1CCN1CCN(c2cccc(C(F)(F)F)c2)CC1` [FLIBANSERIN], the AC50 at Acetylcholinesterase was over 30 µM; on D(1A) dopamine receptor, 2.43 µM; at Progesterone receptor, over 30 µM; in experiment [1], over 30 µM.

For the compound `O=C(O)[C@H](O)[C@@H](O)[C@H](O)[C@H](O)CO` [GLUCONIC ACID], the AC50 (at Acetylcholinesterase; at D(1A) dopamine receptor; at Progesterone receptor; in experiment [1]) was over 30 µM each time.

For `N=C(N)NCC1COc2ccccc2O1` (stereo not drawn) [GUANOXAN], the AC50 on Acetylcholinesterase is over 30 µM; on D(1A) dopamine receptor, 23.4 µM; on Progesterone receptor, over 30 µM; in experiment [1], over 30 µM.

For the compound `N#Cc1ccnc(N2C(=O)CC[C@H]2C(=O)N(c2cncc(F)c2)[C@H](C(=O)NC2CC(F)(F)C2)c2ccccc2Cl)c1` [IVOSIDENIB], the AC50 (at Acetylcholinesterase; at D(1A) dopamine receptor; on Progesterone receptor; in experiment [1]) was over 30 µM each time.

Turning to `CNC1(c2ccccc2Cl)CCCCC1=O` (stereo not drawn) [KETAMINE], the half-maximal activity concentration (AC50) (at Acetylcholinesterase; at D(1A) dopamine receptor; on Progesterone receptor; in experiment [1]) was over 30 µM in each case.

`O=NN(CCCl)C(=O)NC1CCCCC1` [LOMUSTINE]: the concentration at half-maximal activity (AC50) (on Acetylcholinesterase; at D(1A) dopamine receptor; on Progesterone receptor; in experiment [1]) was over 30 µM each time.

Turning to `CCCCCCO[C@@H](C)c1cccc(-c2csc(NC(=O)c3cc(Cl)c(/C=C(\C)C(=O)O)c(Cl)c3)n2)c1OC` [LUSUTROMBOPAG], the AC50 at Acetylcholinesterase is over 30 µM; at D(1A) dopamine receptor, 1.54 µM; on Progesterone receptor, 9.34 µM; in experiment [1], over 10 µM.

Take `Cc1cc(C)cc(OCC2CNC(=O)O2)c1` (stereo not drawn) [METAXALONE]: the AC50 (at Acetylcholinesterase; on D(1A) dopamine receptor; at Progesterone receptor; in experiment [1]) was over 30 µM in each case.

On to `CO[C@@]1(NC(=O)C(C(=O)O)c2ccc(O)cc2)C(=O)N2C(C(=O)O)=C(CSc3nnnn3C)CO[C@@H]21` (stereo partly drawn) [MOXALACTAM], for which the half-maximal activity concentration (AC50) (on Acetylcholinesterase; at D(1A) dopamine receptor; at Progesterone receptor; in experiment [1]) was over 30 µM each time.

For `CCCCCCCC/C=C\CCCCCCCC(=O)O` [OLEIC ACID], the AC50 (at Acetylcholinesterase; on D(1A) dopamine receptor; in experiment [1]) was over 30 µM throughout.

As for `C#CCN(C)Cc1ccccc1` [PARGYLINE], the half-maximal activity concentration (AC50) (at Acetylcholinesterase; on D(1A) dopamine receptor; on Progesterone receptor; in experiment [1]) was over 30 µM each time.

For `CC1=C(C/C=C(\C)CCC[C@H](C)CCC[C@H](C)CCCC(C)C)C(=O)c2ccccc2C1=O` [PHYTONADIONE], the AC50 (on Acetylcholinesterase; at D(1A) dopamine receptor; on Progesterone receptor; in experiment [1]) was over 30 µM in each case.

Regarding `NC(=O)C1(N2CCCCC2)CCN(CCCC(=O)c2ccc(F)cc2)CC1` [PIPAMPERONE], the concentration at half-maximal activity (AC50) was over 30 µM on Acetylcholinesterase, 0.258 µM at D(1A) dopamine receptor, over 30 µM at Progesterone receptor and 2.92 µM in experiment [1].

As to `COc1cccc2c1C(=O)c1c(O)c3c(c(O)c1C2=O)C[C@@](O)(C(=O)CO)C[C@@H]3O[C@H]1C[C@H](N)[C@H](O[C@@H]2CCCCO2)[C@H](C)O1` [PIRARUBICIN], the AC50 on Acetylcholinesterase is over 10 µM; at D(1A) dopamine receptor, over 30 µM; on Progesterone receptor it was over 30 µM; in experiment [1], over 30 µM.

On to `CC(C)(Oc1ccc(Cl)cc1)C(=O)NC(=O)NCN1CCOCC1` [PLAFIBRIDE], for which the AC50 (on Acetylcholinesterase; on D(1A) dopamine receptor; at Progesterone receptor; in experiment [1]) was over 30 µM each time.

For `CC(C)NC[C@H](O)COc1ccc(O)cc1` [PRENALTEROL], the concentration at half-maximal activity (AC50) (at Acetylcholinesterase; at D(1A) dopamine receptor; on Progesterone receptor; in experiment [1]) was over 30 µM in each case.

With `CN1CCC(N(Cc2cccs2)c2ccccc2)CC1` [THENALIDINE], the AC50 at Acetylcholinesterase is over 30 µM; on D(1A) dopamine receptor, 11.6 µM; at Progesterone receptor, over 30 µM; in experiment [1], 1.61 µM.

For the compound `Cc1ccc(C(C)C)c(O)c1` [THYMOL], the AC50 (at Acetylcholinesterase; at D(1A) dopamine receptor; on Progesterone receptor; in experiment [1]) was over 30 µM each time.

For `Cc1cccc(C)c1NC(=O)c1cc(S(N)(=O)=O)c(Cl)cc1O` [XIPAMIDE], the concentration at half-maximal activity (AC50) (at Acetylcholinesterase; on D(1A) dopamine receptor; at Progesterone receptor; in experiment [1]) was over 30 µM each time.

The AC50 is the concentration giving half of the maximal activity seen.

(Values after ChEMBL document CHEMBL5291721, “A preclinical secondary pharmacology resource illuminates target-adverse drug reaction associations of marketed drugs” (Nat Commun, 2023).)
